Publication PMC6680226, “Peptoid Efficacy against Polymicrobial Biofilms Determined by Using Propidium Monoazide‐Modified Quantitative PCR” (Chembiochem, 2016)

What was measured:
[1] = test system: E. coli monospecies biofilm; assay: PMA-qPCR viable cell number, E. coli monospecies biofilm; format: cell-based, Escherichia coli; details: peptoid 100 μM, 24 h; n=3
Procedure: (§1) Preparation and treatment of single‐species biofilms: Overnight cultures of C. albicans were washed and resuspended (1.0×10^6 cells per mL) in RPMI‐1640 (Sigma–Aldrich). Overnight cultures of S. aureus or E. coli were washed and resuspended (5.0×10^6 cells per mL) in BHI broth. Samples (100 μL) were added to microtitre plate wells (Thermo Fisher Scientific), and a biofilm was allowed to form for 4 h. Wells were washed with PBS (3×200 μL) to facilitate removal of planktonic cells, and the biofilms were then treated with 1–18 (100 μM in the appropriate medium). Plates were incubated for a further 24 h to allow biofilm maturation. After removal of planktonic cells by washing, biofilms were quantified by the crystal violet assay or by PMA‐qPCR.
(§2) Biofilm quantification by PMA‐modified qPCR: In order to determine the bactericidal and fungicidal activity of peptoids against single‐species and polymicrobial biofilms, the biofilms were detached from the microtitre plate wells prior to quantification. The wells were washed as above, then BHI broth (100 μL) was added and the plate was sealed. Biofilm detachment was achieved by sonication for 5 min in an ultrasonic bath (Dawe, Hayes, Middlesex, UK). The remaining cells were then collected in BHI (80 μL). […]
(§3) Generation of standard curves for PMA‐qPCR: For quantification of C. albicans, S. aureus and E. coli in single‐species and polymicrobial biofilms, DNA standards were prepared by extraction of DNA from planktonic organisms with the microLYSIS‐Plus kit and purification with a DNeasy kit (Qiagen). DNA standards (10^1–10^6 cells) were used in PMA‐qPCR assays to generate standard curves from which the numbers of living organisms within the biofilms could be determined.

[2] = test system: S. aureus in polymicrobial biofilm with C. albicans; assay: PMA-qPCR, S. aureus within C. albicans-S. aureus polymicrobial biofilm; format: cell-based, Staphylococcus aureus; details: PMA-qPCR
Procedure: (§4) Preparation and treatment of polymicrobial biofilms: Overnight cultures of C. albicans were prepared in microtitre plates as above, and allowed to adhere for 4 h to facilitate initial biofilm formation. Planktonic C. albicans cells were removed as above before the addition of S. aureus or E. coli (100 μL, 5.0×10^6 cells per mL). Bacteria were allowed to adhere to the C. albicans biofilms for 4 h to facilitate polymicrobial biofilm formation. Following a washing step, the biofilms were then treated with peptoid (10–100 μM), and incubated for a further 24 h to allow biofilm maturation. Wells were washed as above, and the polymicrobial biofilms were quantified by PMA‐modified qPCR.
Biofilm quantification by PMA‐modified qPCR: In order to determine the bactericidal and fungicidal activity of peptoids against single‐species and polymicrobial biofilms, the biofilms were detached from the microtitre plate wells prior to quantification. The wells were washed as above, then BHI broth (100 μL) was added and the plate was sealed. Biofilm detachment was achieved by sonication for 5 min in an ultrasonic bath (Dawe, Hayes, Middlesex, UK). The remaining cells were then collected in BHI (80 μL). PMA (20 μL, 2 mM in broth;47 Biotium, Fremont, CA) was added to the biofilm suspensions […] and incubated (37 °C, 5 min) prior to photoactivation with a broad‐spectrum LED flood light (60 LED, 0.1 W) placed 15 cm from the tubes (mixed by inversion during the 20 min photoactivation step).48 DNA was extracted by using a microLYSIS‐Plus kit (Microzone, Haywards Heath, UK), and qPCR was performed in a Mx3005P qPCR System (Agilent Technologies).49, 50, 51 See the Tables in the Supporting Information.
as §3

[3] = test system: E. coli (ATCC 29522) biofilm; assay: Crystal violet assay, E. coli monospecies biofilm; format: cell-based, Escherichia coli; details: peptoid 100 μM, 24 h treatment of 4 h biofilm; n=3
Procedure: (§5) Microorganism strains and growth conditions: C. albicans (NCTC 3179) was subcultured aerobically on Sabouraud agar plates, prepared by using Sabouraud dextrose powder and agar (Oxoid, ThermoFisher) and propagated in yeast peptone dextrose broth. E. coli (ATCC 29522) and S. aureus (NCTC 6571) were grown on blood agar plates (Fanin, Dublin, Ireland) and propagated in brain heart infusion (BHI) broth (Oxoid, ThermoFisher).
as §1
(§6) Biofilm quantification by crystal violet assay: Washed biofilms were fixed with methanol (100 μL) for 10 min. Following removal of methanol, the wells were air dried and stained with crystal violet solution (Clin‐Tech, Guildford, UK) for 20 min at room temperature. Excess stain was removed by washing, then the plate was air‐dried and bound crystal violet was re‐solubilised in acetic acid (33 %, 160 μL) prior to reading at 570 nm in a GENios microtitre plate reader (Tecan, Zürich, Switzerland).

[4] = test system: C. albicans monospecies biofilm; assay: PMA-qPCR viable cell number, C. albicans monospecies biofilm; format: cell-based, Candida albicans; details: peptoid 100 μM, 24 h; n=3
Procedure: as §1, §2, §3

[5] = test system: S. aureus (NCTC 6571) biofilm; assay: Crystal violet assay, S. aureus monospecies biofilm; format: cell-based, Staphylococcus aureus; details: peptoid 100 μM, 24 h treatment of 4 h biofilm; n=3
Procedure: as §5, §1, §6

[6] = test system: S. aureus monospecies biofilm; assay: PMA-qPCR viable cell number, S. aureus monospecies biofilm; format: cell-based, Staphylococcus aureus; details: peptoid 100 μM, 24 h; n=3
Procedure: as §1
as §2, with “sealed.” for “sealed. Biofilm detachment was achieved by sonication for 5 min in an ultrasonic bath (Dawe, Hayes, Middlesex, UK). The remaining cells were then collected in BHI (80 μL).”
(§7) Generation of standard curves for PMA‐qPCR: For quantification of C. albicans, S. aureus and E. coli in single‐species and polymicrobial biofilms, DNA standards were prepared by extraction of DNA from planktonic organisms with the microLYSIS‐Plus kit and purification with a DNeasy kit (Qiagen). […]

[7] = test system: C. albicans in polymicrobial biofilm with S. aureus; assay: PMA-qPCR, C. albicans within C. albicans-S. aureus polymicrobial biofilm; format: cell-based, Candida albicans
Procedure: as §4, §2, §3

[8] = test system: C. albicans (NCTC 3179) biofilm; assay: Crystal violet assay, C. albicans monospecies biofilm; format: cell-based, Candida albicans; details: peptoid 100 μM, 24 h treatment of 4 h biofilm; n=3
Procedure: as §5, §1, §6

HaCaT = assay: alamarBlue cytotoxicity assay, HaCaT keratinocytes
Procedure: (§8) Peptoid cytotoxicity studies: All 18 peptoids were tested for cytotoxicity against HepG2 epithelial (Sigma–Aldrich) and HaCaT keratinocyte (ThermoFisher) cell lines, Cytotoxicity analyses were performed in Costar 96‐well plates (Thermo Fisher Scientific) with alamarBlue (Invitrogen/Thermo Fisher Scientific) for cell viability detection as described by the manufacturer. HepG2 and HaCaT cells were grown at 37 °C under CO2 (5 %) in DMEM (high glucose) supplemented with heat‐inactivated foetal bovine sera (FBS, 10 %; Biosera, Uckfield, UK) and penicillin/streptomycin (1 %). Cells were counted in a Neubauer Improved Haemocytometer. HepG2 or HaCaT cells were seeded 24 h prior to treatment in 96‐well plates (2×10^4 cells per well in 100 μL). After 24 h, cells were incubated in triplicate with a dilution series of compound (2–100 μM from 5 mM stock solutions in DMSO) in the medium (50 μL) for 1 h. An aliquot (40 μL) was removed from each well, before the addition of medium (90 μL) followed by incubation for 24 h (37 °C, 5 % CO2). Then, alamarBlue (10 μL) was added to each well before incubation (2 h for Hep G2, 1 h for HaCaT) prior to assessing cell viability in a fluorescent plate reader (Biotek, Winooski, VT; λ ex=560 nm, λ em=600 nm). All data were measured in triplicate on a minimum of two occasions.
(§9) Toxicity was determined using an alamarBlue® cytotoxicity assay.

HepG2 = assay: alamarBlue cytotoxicity assay, HepG2 cells
Procedure: as §8, §9

[9] = test system: C. albicans in polymicrobial biofilm with E. coli; assay: PMA-qPCR, C. albicans within C. albicans-E. coli polymicrobial biofilm; format: cell-based, Candida albicans
Procedure: as §4
as §2, with “sealed.” for “sealed. Biofilm detachment was achieved by sonication for 5 min in an ultrasonic bath (Dawe, Hayes, Middlesex, UK). The remaining cells were then collected in BHI (80 μL).”
as §7

[10] = test system: E. coli in polymicrobial biofilm with C. albicans; assay: PMA-qPCR, E. coli within C. albicans-E. coli polymicrobial biofilm; format: cell-based, Escherichia coli
Procedure: as §4
as §2, with “sealed.” for “sealed. Biofilm detachment was achieved by sonication for 5 min in an ultrasonic bath (Dawe, Hayes, Middlesex, UK). The remaining cells were then collected in BHI (80 μL).”
as §7

[11] = alamarBlue viability, 2-100 μM from DMSO stock, 1 h with compound then 24 h incubation at 37 °C, fluorescence, triplicate on a minimum of two occasions

Substance: (NahNspeNspe)3 [Peptoid 17]
- Reduction in viable cell number, E. coli monospecies biofilm (PMA-qPCR) [1]: the most effective
- Reduction of cell numbers of S. aureus in mixed-species biofilm ([2]; peptoid 10 μM, 24 h): ~100%
- Reduction in S. aureus cell numbers in cross-kingdom biofilm, concentration series ([2]; peptoid 10-100 μM): the greatest reduction in cell numbers
- Efficacy against E. coli monospecies biofilm (biomass, crystal violet) [3]: amongst the most efficacious
- Reduction in viable cell number, C. albicans monospecies biofilm (PMA-qPCR) [4]: still caused a significant reduction in the fungal biofilm
- Efficacy against S. aureus monospecies biofilm (biomass, crystal violet) [5]: amongst the most efficacious
- Reduction in viable cell number, S. aureus monospecies biofilm (PMA-qPCR) [6]: approximately two orders of magnitude
- Reduction in C. albicans cell number in mixed biofilm with S. aureus (PMA-qPCR) ([7]; peptoid 100 μM, 24 h, n=3): less susceptible
- Reduction in C. albicans cell numbers in cross-kingdom biofilm with S. aureus, concentration series ([7]; peptoid 10-100 μM, PMA-qPCR): the greatest reduction in cell numbers
- Efficacy against C. albicans monospecies biofilm (biomass, crystal violet) [8]: amongst the most efficacious
- ED50 HaCaT (HaCaT; [11]): > 100 µM
- Toxicity to HaCaT cells (in words) (HaCaT; alamarBlue, up to 100 μM): negligible toxicity
- ED50 HepG2 (HepG2; [11]): > 100 µM
- Toxicity to HepG2 cells (in words) (HepG2; alamarBlue, up to 100 μM): negligible toxicity
- Reduction in C. albicans cell number in mixed biofilm with E. coli (PMA-qPCR) ([9]; peptoid 100 μM, 24 h, n=3): the most active
- Reduction in C. albicans cell numbers in cross-kingdom biofilm with E. coli, concentration series ([9]; peptoid 10-100 μM, PMA-qPCR): the greatest reduction in cell numbers
- Reduction in E. coli cell number in mixed biofilm with C. albicans (PMA-qPCR) ([10]; peptoid 100 μM, 24 h, n=3): the most active
- Reduction in E. coli cell numbers in cross-kingdom biofilm, concentration series ([10]; peptoid 10-100 μM, PMA-qPCR): the greatest reduction in cell numbers
